Test results reported in US10420341B2, “Herbicidal phenylpyrimidines” (BASF SE, priority 2015, dated 2019).

Assays:
APESV = experiment: greenhouse pre-emergence herbicidal test; type: in vivo, Apera spica-venti; conditions: pre-emergence method, scale from 0 to 100
Source text: (§1) The seeds of the test plants were sown separately for each species. For the pre-emergence treatment, the active ingredients, which had been suspended or emulsified in water, were applied directly after sowing by means of finely distributing nozzles. The containers were irrigated gently to promote germination and growth and subsequently covered with transparent plastic hoods until the plants had rooted. This cover caused uniform germination of the test plants, unless this had been impaired by the active ingredients. Depending on the species, the plants were kept at 10-25° C. or 20-35° C., respectively. The test period extended over 2 to 4 weeks. During this time, the plants were tended, and their response to the individual treatments was evaluated. Evaluation was carried out using a scale from 0 to 100. 100 means no emergence of the plants, or complete destruction of at least the aerial moieties, and 0 means no damage, or normal course of growth. […] The plants used in the greenhouse experiments were of the following species: [table]

ECHCG [1] = experiment: greenhouse pre-emergence herbicidal test; type: in vivo, Echinocloa crus-galli; conditions: pre-emergence method, scale from 0 to 100
Source text: as §1

ALOMY = experiment: greenhouse post-emergence herbicidal test; type: in vivo, Alopercurus myosuroides; conditions: post-emergence method, scale from 0 to 100
Source text: (§2) The seeds of the test plants were sown separately for each species. For the post-emergence treatment, the test plants were first grown to a height of 3 to 15 cm, depending on the plant habit, and only then treated with the active ingredients which had been suspended or emulsified in water. For this purpose, the test plants were either sown directly and grown in the same containers, or they were first grown separately as seedlings and transplanted into the test containers a few days prior to treatment. Depending on the species, the plants were kept at 10-25° C. or 20-35° C., respectively. The test period extended over 2 to 4 weeks. During this time, the plants were tended, and their response to the individual treatments was evaluated. Evaluation was carried out using a scale from 0 to 100. 100 means no emergence of the plants, or complete destruction of at least the aerial moieties, and 0 means no damage, or normal course of growth. […] The plants used in the greenhouse experiments were of the following species: [table]

AVEFA = experiment: greenhouse post-emergence herbicidal test; type: in vivo, Avena fatua; conditions: post-emergence method, scale from 0 to 100
Source text: as §2

ECHCG [2] = experiment: greenhouse post-emergence herbicidal test; type: in vivo, Echinocloa crus-galli; conditions: post-emergence method, application rate 500 g/ha, scale from 0 to 100
Source text: as §2

| Compound | herbicidal activity against APESV (APESV; application rate 500 g/ha) | herbicidal activity against ECHCG (ECHCG [1]; application rate 500 g/ha) | herbicidal activity against ALOMY (ALOMY; application rate 500 g/ha) | herbicidal activity against AVEFA (AVEFA; application rate 500 g/ha) | herbicidal activity against APESV (APESV; application rate 1000 g/ha) | herbicidal activity against ALOMY (ALOMY; application rate 1000 g/ha) | herbicidal activity against AVEFA (AVEFA; application rate 1000 g/ha) | herbicidal activity against ECHCG (ECHCG [2]) | herbicidal activity against ECHCG (ECHCG [1]; application rate 1000 g/ha) |
| --- | --- | --- | --- | --- | --- | --- | --- | --- | --- |
| O=C(O)c1nc(C2CC2)ncc1-c1ccc(F)cc1F [example 133] | very good (a very good herbicidal activity is given at values of at least 85) | very good (a very good herbicidal activity is given at values of at least 85) | very good (a very good herbicidal activity is given at values of at least 85) | very good (a very good herbicidal activity is given at values of at least 85) | – | – | – | – | – |
| O=C(O)c1nc(C2CC2)ncc1-c1c(F)cc(F)cc1F [example 134] | very good (a very good herbicidal activity is given at values of at least 85) | very good (a very good herbicidal activity is given at values of at least 85) | very good (a very good herbicidal activity is given at values of at least 85) | very good (a very good herbicidal activity is given at values of at least 85) | – | – | – | – | – |
| O=C(O)c1nc(C2CC2)ncc1-c1ccccc1Cl [example 141] | very good (a very good herbicidal activity is given at values of at least 85) | very good (a very good herbicidal activity is given at values of at least 85) | very good (a very good herbicidal activity is given at values of at least 85) | very good (a very good herbicidal activity is given at values of at least 85) | – | – | – | – | – |
| O=C(O)c1nc(C2CC2)ncc1-c1c(Cl)cc(Cl)cc1Cl [example 149] | – | – | – | – | very good (a very good herbicidal activity is given at values of at least 85) | very good (a very good herbicidal activity is given at values of at least 85) | very good (a very good herbicidal activity is given at values of at least 85) | – | – |
| N#Cc1cc(F)ccc1-c1cnc(C2CC2)nc1C(=O)O [example 157] | – | – | – | – | very good (a very good herbicidal activity is given at values of at least 85) | very good (a very good herbicidal activity is given at values of at least 85) | very good (a very good herbicidal activity is given at values of at least 85) | – | – |
| Cc1ccc(C)c(-c2cnc(C3CC3)nc2C(=O)O)c1 [example 165] | very good (a very good herbicidal activity is given at values of at least 85) | – | very good (a very good herbicidal activity is given at values of at least 85) | very good (a very good herbicidal activity is given at values of at least 85) | – | – | – | – | – |
| COc1cccc(Cl)c1-c1cnc(C2CC2)nc1C(=O)O [example 178] | very good (a very good herbicidal activity is given at values of at least 85) | very good (a very good herbicidal activity is given at values of at least 85) | good (A good herbicidal activity is given at values of at least 70) | good (A good herbicidal activity is given at values of at least 70) | – | – | – | – | – |
| COC(=O)c1nc(C2CC2)ncc1-c1ccc(F)cc1F [example 192] | very good (a very good herbicidal activity is given at values of at least 85) | very good (a very good herbicidal activity is given at values of at least 85) | very good (a very good herbicidal activity is given at values of at least 85) | very good (a very good herbicidal activity is given at values of at least 85) | – | – | – | – | – |
| COC(=O)c1nc(C2CC2)ncc1-c1c(F)cc(F)cc1F [example 193] | very good (a very good herbicidal activity is given at values of at least 85) | very good (a very good herbicidal activity is given at values of at least 85) | very good (a very good herbicidal activity is given at values of at least 85) | very good (a very good herbicidal activity is given at values of at least 85) | – | – | – | – | – |
| COC(=O)c1nc(C2CC2)ncc1-c1c(F)cc(Cl)cc1Cl [example 194] | good (A good herbicidal activity is given at values of at least 70) | – | good (A good herbicidal activity is given at values of at least 70) | very good (a very good herbicidal activity is given at values of at least 85) | – | – | – | – | – |
| COC(=O)c1nc(C2CC2)ncc1-c1c(Cl)cc(Cl)cc1Cl [example 209] | – | – | – | – | very good (a very good herbicidal activity is given at values of at least 85) | very good (a very good herbicidal activity is given at values of at least 85) | very good (a very good herbicidal activity is given at values of at least 85) | – | – |
| COC(=O)c1nc(C2CC2)ncc1-c1cc(F)ccc1C#N [example 218] | very good (a very good herbicidal activity is given at values of at least 85) | very good (a very good herbicidal activity is given at values of at least 85) | – | very good (a very good herbicidal activity is given at values of at least 85) | – | – | – | very good (a very good herbicidal activity is given at values of at least 85) | – |
| COC(=O)c1nc(C2CC2)ncc1-c1ccc(F)cc1C#N [example 220] | very good (a very good herbicidal activity is given at values of at least 85) | – | very good (a very good herbicidal activity is given at values of at least 85) | very good (a very good herbicidal activity is given at values of at least 85) | – | – | – | – | – |
| CC(C)OC(=O)c1nc(C2CC2)ncc1-c1ccccc1Cl [example 252] | – | – | – | – | – | very good (a very good herbicidal activity is given at values of at least 85) | very good (a very good herbicidal activity is given at values of at least 85) | – | very good (a very good herbicidal activity is given at values of at least 85) |
| CCSC(=O)c1nc(C2CC2)ncc1-c1ccccc1Cl [example 291] | very good (a very good herbicidal activity is given at values of at least 85) | very good (a very good herbicidal activity is given at values of at least 85) | – | very good (a very good herbicidal activity is given at values of at least 85) | – | – | – | very good (a very good herbicidal activity is given at values of at least 85) | – |
